Measurements reported in patent US10066025B2, “Compositions and methods for detecting, treating and preventing diseases and disorders” (YALE UNIVERSITY, priority 2012, dated 2018).

Tests used:
[1] = tested on: renal ischemia/reperfusion (IR) injury; assay: Murine model of renal ischemia/reperfusion (IR) injury, plasma creatinine; type: in vivo, mice; settings: for effect of ERK or PI3K/AKT inhibitor pretreatment on protective action of RP-H220 / protection against ischemic AKI (renal injury, plasma creatinine at 24 hr): WT mice; for effect of ERK or PI3K/AKT inhibitor pretreatment on protective action of RP-H220: 30 min renal IR; for severity of AKI, inhibitor alone without the peptides: ischemic WT mice; for renal protection (plasma creatinine): 5 mg/kg i.p., 30 min. renal IR; for protection against ischemic AKI (renal injury, plasma creatinine at 24 hr): renalase peptides 100 μg subcutaneous 10 to 30 min prior to 30 min renal ischemia
Method: Adult male renalase deficient (KO) mice (Wu et al., 2011, Kidney Int 79: 853-860) on a C57BL/6 background were subjected to renal ischemia/reperfusion (IR) as described (Kim et al., 2009, Kidney Int 75: 809-823; Kim et al., 2010, Am J Physiol Renal Physiol 299(2):F347-58). Renalase KO or wild type (WT) mice (C57BL/6 from Harlan Labs, Indianapolis, Ind.) were subjected to sham-operation or to 20 min. (moderate) or 30 min. (severe) renal ischemia and 24 hr. reperfusion. To test the renal protective effects of recombinant human renalase, mice were pretreated with saline (vehicle) or with recombinant renalase (0.5, 1.5 or 4.5 mg/kg, s.c.) 10 min. prior to 30 min. renal ischemia. It was also tested whether renalase treatment after completion of renal ischemia also provides renal protection. Separate cohorts of mice were treated with saline or with renalase (1.5 mg/kg, s.c.) 30 min. or 60 min. after reperfusion of the ischemic kidney. To test whether blocking alpha receptors would mimic the renal protective effects of human recombinant renalase administration, phentolamine (an alpha receptor antagonist, 5 mg/kg, i.p.) was given in some mice 15 min. before renal ischemia.
Plasma creatinine was measured as described with an enzymatic creatinine reagent kit according to the manufacturer's instructions (Thermo Fisher Scientific, Waltham, Mass.) (Slot, 1965, J Clin Lab Invest 17: 381-387).
After animal care and use committee approval, adult male C57BL/6 (Harlan Labs, Indianapolis, Ind.) were subjected to sham-operation or to 30 minutes of renal ischemia followed by 24 hrs of reperfusion as previously described (Lee et al., 2004, American journal of physiology. Renal physiology 286:F298-306). To test the renal protective effects of renalase peptides (RP-220, RP-H220 and RP-224), mice were pretreated with saline (vehicle) or with renalase peptides (100 μg subcutaneous) 10 to 30 minutes prior to renal ischemia.
Blood was collected from mice anesthetized with isoflurane via cardiac puncture into a heparinized syringe and was subsequently centrifuged to separate plasma. Samples were submitted to the Yale O'Brien Kidney Center for measurement of BUN and creatinine. Plasma creatinine was measured either by an enzymatic creatinine reagent kit according to the manufacturer's instructions (Thermo Fisher Scientific, Waltham, Mass.) or by HPLC. These methods of creatinine measurement largely eliminate the interferences from mouse plasma chromagens, known to occur with the Jaffe method.

systemic blood pressure = assay: Blood pressure and heart rate in anesthetized mice; type: in vivo; settings: for effect on systemic blood pressure: IV and subcutaneous administration, mice
Method: As in 14A, except that RP-H220 is injected; no significant changes in blood pressure (FIG. 14B). Effect of a single intravenous injection of RP-220 (squares) and RP-H220 (diamonds) on heart rate in wild type mice (FIG. 14C).
FIG. 21 depicts the results of experiments examining the effect of RP-220 injection on blood pressure. A single subcutaneous injection of RP-220 (n=3) or buffer (n=2) in anesthetized wild type mice; BP pressure is recorded continuously; RP-220 is given at time 0; each data point represents the mean pressure; the standard error of the means are shown.
Systolic and diastolic pressure and heart rate were measured in anesthetized mice as previously described (Desir et al., 2012, J Am Heart Assoc. 1:e002634).

[2] = tested on: PI3K/AKT and MAPK pathways; assay: AKT and MAPK signaling and Bcl-2 expression by western blot; type: cell-based, human; settings: HK-2 cells in culture
Method: FIG. 12, comprising FIGS. 12A through 12E, is a set of images and graphs showing renalase upregulates Bcl-2, activates PI3K/AKT, ERK, p38, and inhibits JNK. Western blot analysis; P− indicates phosphorylated, activated proteins; signals normalized to GAPDH loading control, then changes in protein phosphorylation (increase=activation, decrease=inhibition) from time 0 are calculated. FIG. 12A: HK-2 and HUVEC cells incubated with renalase for 24 hrs; FIG. 12B: Western blot of time course of AKT and MAPK signaling by renalase, HK-2 cells incubated with renalase for indicated time; changes over baseline in 4c-d are significant (p<0.05); FIG. 12C: Activation of AKT(T308), AKT(5473) and ERK; FIG. 12D: Inhibition of JNK; FIG. 12E: Marked and sustained (60 min) upregulation of p38 by renalase in the presence of cisplatin, western blot for time course, REN=renalase, CP=cisplatin.
MAPK signaling by renalase and renalase peptides. Western blot analysis; ERK: Extracellular signal-Regulated Kinase 1 and 2; JNK: c-Jun N-terminal Kinases; AKT: protein kinase B; p-indicates phosphorylated, activated proteins; representative blot, n=3 (FIG. 20A). Renalase activates AKT (FIG. 20B). Western blot analysis; P− indicates phosphorylated, activated proteins Representative blot, n=3 (FIG. 20B, left panel). Signals normalized to GAPDH loading control; n=3, change over baseline statistically significant (P<0.05) from 1-60 min for ERK, p38 and AKT (T308), and at 30 min only for AKT (S473) (FIG. 20B, right panel). ERK or AKT inhibition abrogates protective effect of RP-H220 (FIG. 20C). Plasma creatinine levels from mice subjected to sham-surgery or to renal ischemia and reperfusion (IR); Renalase WT mice were subjected to sham-surgery or to 30 min renal IR. For mice subjected to renal IR, RP-H220 or vehicle (saline) was injected 10 min prior to renal ischemia. Some animals were pretreated with either the ERK inhibitor PD98059 or the PI3K/AKT inhibitor wortmanin. (N=6-8 per group). *: P<0.05 vs. vehicle-treated mice subjected to sham-surgery; #: P<0.05 vs. vehicle-treated WT mice subjected to renal IR (FIG. 20C).

HK-2 cells [3] = assay: HK-2 cell necrosis induced with 2 mM H2O2 (LDH release); type: cell-based, human
Method: (§1) HK2 cells (human proximal tubular line) obtained from ATTC (Manassas, Va., USA) were cultured in DMEM/F12 supplemented with glutamine, 10% FBS and antibiotics, and were maintained at 37° C. in 5% CO2. Cells were exposed to cisplatin (20 μM) in the presence or absence of renalase for 24 hrs, and cell viability was assessed by the WST1 method (Roche Applied Science, Germany). Cells were then harvested in RIPA buffer (20 mM Tris-HCl pH 7.5, 150 mM NaCl, 1 mM Na2EDTA, 1 mM EGTA, 1% NP-40, 1% sodium deoxycholate, 2.5 mM sodium pyrophosphate, 1 mM β-glycerophosphate, 1 mM Na3VO4, 1 μg/ml leupeptin) supplemented with a protease and phosphatase inhibitor cocktail (Roche Applied Science, Germany). Proteins were separated by SDS-PAGE and Western blotting was carried out using the following antibodies: anti-renalase monoclonal (Desir et al., 2012, J Am Heart Assoc. 1:e002634; (Lee et al., 2013, J Am Soc Nephrol 24:445-455); anti caspase 3 (Cell Signaling Technology, MA, USA) and anti Bcl2 (Thermo Scientific, USA). Necrotic injury in HK-2 cells (ATCC, Manassas, Va.) was induced with exposure to 2 mM H2O2 for 2-8 hr and lactate dehydrogenase (LDH) released into cell culture media was measured as described using a commercial LDH assay kit (Promega, Madison, Wis.) (Lee and Emala, 2002, American journal of physiology. Renal physiology 282:F844-852).

HK-2 cells [4] = assay: HK-2 cell cisplatin toxicity (WST-1 viability, western blot); type: cell-based, human; settings: 20 μM cisplatin, 24 hrs
Method: Cultured HK-2 cells were incubated with 20 μM cisplatin for 24 hours with and without recombinant renalase. Renalase expression was examined by Western blot and cell viability (mitochondrial integrity) was determined spectrophotometrically using WST-1, a tetrazolium salt that is cleaved, by mitochondrial dehydrogenases of metabolically active and viable cells, to formazan (420-480 nm) (Boehringer Mannheim, Germany).
as §1

## COc1cccc(-c2cc(=O)c3ccccc3o2)c1N [PD98059, 2′-amino 3′ methoxyflavone, reference compound]
[1]
  effect of ERK or PI3K/AKT inhibitor pretreatment on protective action of RP-H220: completely abrogated
  severity of AKI, inhibitor alone without the peptides: had no effect on the severity of AKI

## Cc1ccc(N(CC2=NCCN2)c2cccc(O)c2)cc1 [Phentolamine, reference compound]
[1]; renalase KO mice
  renal protection (plasma creatinine): protected renalase KO mice
[1]; renalase WT mice
  renal protection (plasma creatinine): produced significant renal protection

## COC[C@H]1OC(=O)c2coc3c2[C@@]1(C)C1=C(C3=O)[C@@H]2CCC(=O)[C@@]2(C)C[C@H]1OC(C)=O [wortmanin, reference compound]
[1]
  effect of ERK or PI3K/AKT inhibitor pretreatment on protective action of RP-H220: A similar result was obtained
  severity of AKI, inhibitor alone without the peptides: had no effect on the severity of AKI

## RP 19: renalase peptide, SEQ ID NO: 8, LLRRQTSGPLYLAVWDKAED (listed as Homo sapiens)
Systemic blood pressure
  effect on systemic blood pressure: no effect on BP

## RP 128: renalase peptide, SEQ ID NO: 7, FRHRVTQINLRDDKWEVSKQ (listed as Homo sapiens)
Systemic blood pressure
  effect on systemic blood pressure: no effect on BP

## RP 220 scrambled: scrambled RP-220, SEQ ID NO: 6, CSKRIFKVISSIEDNNERG (listed as Homo sapiens) [reference compound]
[2]; listed as RP-Scr220
  AKT and MAPK signaling (phosphorylation of ERK, p38, AKT): did not activate the AKT and MAPK signaling
[2]; listed as scrambled RP H220
  AKT and MAPK signaling (phosphorylation of ERK, p38, AKT): not
Systemic blood pressure
  effect on systemic blood pressure: no effect on BP
Systemic blood pressure; anesthetized WT mice
  effect on blood pressure and heart rate: no effect on blood pressure and heart rate

## RP 220: renalase peptide, amino acids 220-239, SEQ ID NO: 3, CIRFVSIDNKKRNIESSEIG (listed as Homo sapiens)
[1]
  protection against ischemic AKI (renal injury, plasma creatinine at 24 hr): less effective
[1]; listed as RP-220
  protection against ischemic AKI (renal injury, plasma creatinine at 24 hr): reduced renal injury
HK-2 cells [3]; at 2 and 4 hrs
  necrosis induced with 2 mM H2O2: significantly reduced necrosis
HK-2 cells [4]
  cell survival / protection against cisplatin toxicity: improved HK-2 cell survival
[2]
  AKT and MAPK signaling (phosphorylation of ERK, p38, AKT): rapid and transient phosphorylation
Systemic blood pressure
  effect on systemic blood pressure: marked and sustained effect on systemic blood pressure
Systemic blood pressure; WT mice, n=4, P=NS
  mean blood pressure decrease at 15 min: 11.9±0.9 mmHg
Systemic blood pressure; anesthetized WT mice
  blood pressure after single intravenous injection: profound fall in blood pressure
  blood pressure after subcutaneous administration: decreased blood pressure
  delay in the onset of fall in blood pressure after subcutaneous administration: 30 to 60 min
  duration of fall in blood pressure after intravenous injection: up to two hours
  heart rate increase: 5%
  onset of fall in blood pressure after intravenous injection: ≤ 30 s

## RP 224: renalase peptide amino acid 224-233, SEQ ID NO: 2, CVSIDNKKRNI (listed as Homo sapiens)
[1]
  protection against ischemic AKI (renal injury, plasma creatinine at 24 hr): not protective
[1]; listed as RP-224
  protection against ischemic AKI (renal injury, plasma creatinine at 24 hr): ineffective
HK-2 cells [3]; at 2 hrs
  protection against 2 mM H2O2 necrosis: protective at 2 hrs
HK-2 cells [3]; at 4 hrs
  protection against 2 mM H2O2 necrosis: not at 4 hrs
HK-2 cells [4]
  cell survival / protection against cisplatin toxicity: improved HK-2 cell survival
Systemic blood pressure
  effect on systemic blood pressure: no effect on BP
Systemic blood pressure; anesthetized WT mice
  effect on blood pressure and heart rate: no effect on blood pressure and heart rate

## RP A220: renalase peptide, SEQ ID NO: 5, IRFVSIDNAAANIESSEIG (listed as Homo sapiens)
Systemic blood pressure
  effect on systemic blood pressure: no effect on BP
